Source: patent publication US10709724B2, “Methods of treating mitochondrial dysfunction” (Ecole Polytechnique Federale de Lausanne (EPFL), priority 2011, dated 2020)
Where “and” joins values, the source holds several entries; their conditions need not be identical. Identical values can stand only once. Entries after “also recorded” stand apart in the source; their conditions may differ.

What was measured:
[1] = tested on: C. elegans; experiment: Worm lifespan analysis; type: in vivo; settings: for variation compared to control (%): vs N2 + water
Protocol: Worm Lifespan Analysis Lifespan tests were performed as described in Mouchiroud et al (L. Mouchiroud et al., Pyruvate imbalance mediates metabolic reprogramming and mimics lifespan extension by dietary restriction in Caenorhabditis elegans. Aging Cell 10, 39 (2011)). Briefly, 60-100 animals were used per conditions and scored every other day. All lifespan experiments were performed at 20° C. […] Animals were exposed to compounds during the full life from eggs until death. To ensure a permanent exposure to the compound, plates were changed twice a week. All the compounds used in this study were dissolved in a water stock solution.

[2] = tested on: C57Bl/6J mice; experiment: NAD+ content in mouse tissues after one week of supplemented chow; type: in vivo; settings: 400 mg/kg/day in chow; for muscle NAD+ content: quadriceps
Protocol: Animal Experiments. […] In other animal experiments, 8 weeks-old male C57Bl/6J mice were purchased from Charles River and powder chow (D12450B) and high fat (D12492) diets were from Research Diets Inc (New Brunswick, N.J., USA). 80 ml of water per kg of powder CD were used to make food pellets. 40 ml of water per kg of powder HFD were used to make food pellets. […] Mice were housed separately, had ad libitum access to water and food and were kept under a 12 h dark-light cycle. Mice were fed with homemade pellets from 10 weeks of age. […] All animal experiments were carried out according to local national and EU ethical guidelines. To monitor body weight, mice were weighed and the food consumption was measured each week on the same day. In case of PJ34 treatment, mice received each 12 h (at 7:00 and 19:00) 10 mg/kg PJ34 by intraperitoneal injection for 5 continuous days. In all studies animals were killed (at 14:00) either after CO2 inhalation or cervical dislocation after 6 h of fasting (starting at 8:00), and tissues were collected and processed as specified below. […] Plasma insulin and was determined in heparinized plasma samples using specific ELISA kits (Mercodia). Blood samples were collected in heparinized tubes and plasma was isolated after centrifugation. Plasma parameters were measured using a Cobas c111 (Roche Diagnostics). […] The respiratory quotient was the ratio of CO2 production over O2 consumption. During actimetry, beamline crossings were summarized each 15 minutes.
NAD^+ NAM Determination. NAD^+ levels in cultured cells were determined using a commercial kit (Enzychrom™, BioAssays Systems, CA). […] 70 L of ice-cold 7% perchloric acid was then added and the sample was vortexed and sonicated three times, then centrifuged. Clear supernatant was removed and neutralized by additions of 3 M NaOH and 1 M phosphate buffer (pH=9), then centrifuged. Clear supernatant was injected onto HPLC C-18 column with 20 mM ammonium acetate eluent to separate NAD^+ and NAM from other cellular components, NAD^+ and NAM peaks (260 nm absorbance) were collected. Collections were lyophilized to dryness and subjected to MALDI-TOF analysis. […] Corrections were applied for isotopic abundance.

[3] = tested on: C. elegans; experiment: NAD measurement by HPLC in worms; type: in vivo; settings: day 4 of adulthood
Protocol: Worm Respiration Assays Oxygen consumption was measured using the Seahorse XF24 equipment (Seahorse Bioscience Inc., North Billerica, Mass.) as described in Yamamoto et al. Typically, 200 animals per conditions were recovered from NGM plates with M9 medium, washed three times in 2 mLM9 to eliminate residual bacteria, and resuspended in 500 μL M9 medium. Worms were transferred in 24-well standard Seahorse plates (#100777-004) (50 worms per well) and oxygen consumption was measured 6 times. Respiration rates were normalized to the number of worms in each individual well. NAD measurement by HPLC For NAD+ quantification, approximately 1000 worms were collected in M9 buffer, washed five times to remove residual bacteria and flash-frozen in liquid nitrogen and stored at −80° C. until analysis. Extraction was started by adding 250 μl of 1.6M perchloric acid on frozen samples, followed by extensive homogenization in a Qiagen tissuelyser, and centrifugation at 20.000 g for 15 min. The supernatant was recovered and neutralized with a 3M potassium carbonate solution. […]

[4] = tested on: C. elegans; experiment: Worm respiration assay (Seahorse XF24); type: in vivo; settings: day 3 adult worms
Protocol: Worm Respiration Assays Oxygen consumption was measured using the Seahorse XF24 equipment (Seahorse Bioscience Inc., North Billerica, Mass.) as described in Yamamoto et al. Typically, 200 animals per conditions were recovered from NGM plates with M9 medium, washed three times in 2 mLM9 to eliminate residual bacteria, and resuspended in 500 μL M9 medium. Worms were transferred in 24-well standard Seahorse plates (#100777-004) (50 worms per well) and oxygen consumption was measured 6 times. Respiration rates were normalized to the number of worms in each individual well. NAD measurement by HPLC For NAD+ quantification, approximately 1000 worms were collected in M9 buffer, washed five times to remove residual bacteria and flash-frozen in liquid nitrogen and stored at −80° C. until analysis. Extraction was started by adding 250 μl of 1.6M perchloric acid on frozen samples, followed by extensive homogenization in a Qiagen tissuelyser, and centrifugation at 20.000 g for 15 min. The supernatant was recovered and neutralized with a 3M potassium carbonate solution. After centrifugation, 100 μl of supernatant was filtered and used for NAD measurement using an HPLC system (Agilent) with a Supelco LC-18-T column (Sigma), as described in Yoshino et al. (Yoshino, K. F. Mills, M. J. Yoon, S. Imai, Nicotinamide Mononucleotide, a Key NAD(+) Intermediate, Treats the Pathophysiology of Diet- and Age-Induced Diabetes in Mice. Cell Metab 14, 528 (2011)).

[5] = tested on: C. elegans; experiment: Quantitative RT-PCR in worms; type: in vivo
Protocol: mRNA and mtDNA Analysis. Total RNA was prepared using TRIzol (Invitrogen) according to the manufacturer's instructions. RNA was treated with DNase, and 2 μg of RNA was used for reverse transcription (RT). cDNA was purified on QIAquick PCR cleanup columns (Qiagen, Valencia, Calif., USA). 50× diluted cDNA was used for RT-quantitative PCR (RT-VCR) VCR) reactions (Bai et al., 2007). The RT-qPCR reactions were performed using the Light-Cycler system (Roche Applied Science) and a qPCR Supermix (Qiagen) with the primers for mice summarized in Table 1 and 4, and with the primers for worms summarized on Table 7. mtDNA quantification was performed as described (Lagouge et al., 2006) with the primers indicated in Table 2 and 5.

[6] = tested on: C. elegans; experiment: Confocal microscopy of mitochondria in body wall muscle (pmyo-3::mito::GFP reporter); settings: in vivo
Protocol: Confocal Microscopy and Image Processing Worms were immobilized with 6 mM solution of tetramisole hydrochloride (Sigma, Buchs, Switzerland) in M9 and mounted on 6% agarose pads on glass slides. Images of worms were acquired using Zeiss LSM 700 Upright confocal microscope (Carl Zeiss AG, Oberkochen, Germany) under non-saturating exposure conditions. All the snapshots were taken from the same part of C. elegans: muscles from the upper part of the worm, excluding the regions of oesophagus and vulva. For each condition multiple worms were observed and imaged. Image processing was performed with the Fiji software. One of the critical issues during the imaging process was the position of the worm, as it influences the level of background. For the uniformity of the represented images, contrast and brightness were adjusted in order, to eliminate the undesirable background signal. Neither of these manipulations was affecting the mitochondrial shape. Tracing of the mitochondrial network contour was done by the use of Gaussian blur filter followed by the application of Laplacian operator.

[7] = target: T1, GPR109A (Homo sapiens, UniProt Q8TDS4); type: cell-based; settings: GPR109A-expressing Chem-4 cells
T1 construct: host or cells: Chem-4 cells (Ready-to-Assay GPR109A Nicotinic Acid Receptor Cells)
T1 sequence (Q8TDS4 whole entry): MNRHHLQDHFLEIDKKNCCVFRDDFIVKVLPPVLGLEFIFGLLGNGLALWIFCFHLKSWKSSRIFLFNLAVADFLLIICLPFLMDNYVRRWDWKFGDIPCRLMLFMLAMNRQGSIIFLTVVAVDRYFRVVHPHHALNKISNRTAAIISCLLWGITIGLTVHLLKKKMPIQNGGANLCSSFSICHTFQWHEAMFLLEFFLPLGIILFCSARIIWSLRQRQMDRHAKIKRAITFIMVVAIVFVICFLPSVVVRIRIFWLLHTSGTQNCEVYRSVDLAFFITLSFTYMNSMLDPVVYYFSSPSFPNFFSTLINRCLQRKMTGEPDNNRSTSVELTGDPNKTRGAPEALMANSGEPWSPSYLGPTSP
Protocol: GPR109A—Calcium Mobilization Assay. Ready-to-Assai™ GRP109A Nicotinic Acid Receptor Cells were used to measure calcium mobilization as specified by the manufacturer (Millipore). Calcium flux was determined using excitation at 340 and 380 nm in a fluorescence spectrophotometer (Victor X4, Perkin Elmer) in a 180 seconds time course, adding the ligand at 60 seconds. Internal validation was made using 0.1% Triton X-100 for total fluorophore release and 10 mM EGTA to chelate free calcium. Similarly, GPR109A specificity was internally validated using control cells devoid of GRP109A overexpression. Liver triglyceride measurement Liver triglycerides were measured from 20 mg of liver tissue using a variation of the Folch method, as described in Bai et al. (Bai et al., PARP-2 regulates SIRT1 expression and whole-body energy expenditure. (2011). Cell Metab 13, 450-460.

[8] = tested on: C2C12 myotubes; experiment: Intracellular NAD+ content in C2C12 myotubes treated with PARP inhibitors; type: cell-based
Protocol: Cell Culture, Transfection, Adenoviral Infection and Mitochondrial Characterization. HEK293T, MEF and C2C12 cells were cultured in DMEM (4.5 g/l glucose, 10% FCS). PARP-1^+/+ and PARP-1^−/− MEFs were prepared as described in (Menissier-de Murcia et al., 1997). SIRT1 and MEFs were kindly provided by Fred Alt (Chea et al., 2005). SIRT3 MER were established according to standard techniques from conditional SERT3^−/− mice. (Picard, F., Gehin, M., Annicotte, J., Rocchi, S., Champy, M. F., O'Malley, B. W., Chambon, P., and Auwerx, J. (2002). SRC-1 and TIF2 control energy balance between white and brown adipose tissues. Cell 111, 931-941.) Deletion of the SIRT3 gene was induced via infection with adenovirus encoding for the Cre recombinase. HEK293T cells were transfected using JetPei reagent (Polyplus Transfections, Illkirch, France) according to the manufacturer's instructions. C2C12 cells were differentiated in DMEM (4.5 g/L glucose, 2% horse serum) after reaching confluency for 2 days, followed by 2 days of PJ34 treatment (10 μM). PARP-1 shRNA constructs were described in (Shah et al., 2005). Human PARP-1 and siRNAs were obtained from Dharmacon (Thermo Scientific). The adenovirus encoding for FLAG-HA-PGC-1α, control and SIRT1 shRNAs were a kind gift from Pere Puigserver and were used (MOI=100) in C2C12 myotubes as described (Canto et al., 2009). Mitochondrial charge determination was performed as described (Bai et al., 2001) and DNA strand breaks were quantified by TUNEL assays according to the manufacturer's instructions (Millipore).
NAD^+ NAM Determination. NAD^+ levels in cultured cells were determined using a commercial kit (Enzychrom™, BioAssays Systems, CA). For tissue samples NAD^+ and NAM levels were determined as described in (Sauve et al., 2005). In brief, to a weighed aliquot of frozen pulverized tissue we added as standards, ^18O-NAD^+ (typically 2.00 nmol) and ^18O-NAM (typically 2.00 nmol). 70 L of ice-cold 7% perchloric acid was then added and the sample was vortexed and sonicated three times, then centrifuged. Clear supernatant was removed and neutralized by additions of 3 M NaOH and 1 M phosphate buffer (pH=9), then centrifuged. Clear supernatant was injected onto HPLC C-18 column with 20 mM ammonium acetate eluent to separate NAD^+ and NAM from other cellular components, NAD^+ and NAM peaks (260 nm absorbance) were collected. Collections were lyophilized to dryness and subjected to MALDI-TOF analysis. For NAD^+ measurement, ratio of intensities for m/z=664 and 666 peaks, corresponding to ^16O- and ^18O-NAD^+ isotopomers, was multiplied by 2.00 nmol and then divided by tissue weight to determine NAD+ concentration in the sample. For NAM the ratio of intensities for m/z=123 and 125 peaks, corresponding to ^16O- and ^18O-NAM isotopomers, was multiplied by 2.00 nmol and then divided by tissue weight to determine NAM concentration in the sample. Corrections were applied for isotopic abundance. Other NAD metabolites were determined as previously described (Yang and Sauve, Synthesis of nictotinamide riboside and derivatives: effective agents for increasing nictinomide adenine dinucleotide concentrations in mammalian cells. J Med Chem 50, 6458-6461 (2006)).

In the case of `C[C@]1(c2nc3c(C(N)=O)cccc3[nH]2)CCCN1` [ABT-888], the lifespan extension ([1]; 100 nM (FIG. 34B)) is reported as 15%, the “mean lifespan ± SE” value ([1]; N2, 100 nM, listed as ABT) is reported as 22.3 ± 1.01 days and 22.5 ± 1.05 days and the “mean lifespan ± SE” value ([1]; N2, 500 nM) is reported as 22.1 ± 1.20 days. For the same molecule, the “variation compared to control (%)” value ([1]; N2, 500 nM) was “+13.9%”, the “mean lifespan ± SE” value ([1]; N2, 1000 nM) was 20.0 ± 1.23 days and the “variation compared to control (%)” value ([1]; N2, 1000 nM) was “+3.6%”.
With `O=C(O)c1cccnc1` [NA, nicotinic acid, reference compound] the “muscle NAD+ content” value [2] was “significantly enhanced muscle NAD^+ content”.
For `NC(=O)c1cccnc1` [NAM, nicotinamide], the “increase of worm lifespan” value ([1]; FIG. 39B) was 18%, the “mean lifespan ± SE” value ([1]; N2, 200 nM) was 23.5 ± 1.03 days and the “variation compared to control (%)” value ([1]; N2, 200 nM) was “+18.1%”. The “mean lifespan ± SE” value ([1]; N2, 500 nM) was 22.6 ± 0.92 days, the “variation compared to control (%)” value ([1]; N2, 500 nM) was “+13.5%” and the “mean lifespan ± SE” value ([1]; N2, 1000 nM) was 21.8 ± 0.85 days. For the same molecule, the “variation compared to control (%)” value ([1]; N2, 1000 nM) was “+9.5%”, the “lifespan in sir-2.1(ok434) mutant / sir-2.1 dependence” value ([1]; sir-2.1(ok434) mutant worms) was “sir-2.1-dependent fashion” and the lifespan ([1]; wild type N2 worms) was “extended lifespan”. For the same molecule, the “NAD+ levels in C. elegans” value [3] was “increased NAD+ levels”, the “oxygen consumption (respiration)” value [4] was “increased respiration; also recorded: Oxygen consumption was increased” and the “expression of genes of mitochondrial oxidative metabolism (cts-1, cox-4)” value ([5]; day 3 of adulthood) was “trend for increased cts-1 expression”. For the same molecule, the daf-16 expression ([5]; in vivo) was “without affecting daf-16 mRNA levels; also recorded: daf-16 was unchanged”, the sod-3 expression ([5]; in vivo) was “significantly higher sod-3 expression; also recorded: expression of sod-3 was increased” and the “mitochondrial content in body wall muscle” value [6] was “increase muscle mitochondrial content; also recorded: increased mitochondrial content in body wall muscle”. The “mitochondrial morphology in body wall muscle” value [6] was “affect mitochondrial morphology”.
`NC(=O)c1ccc[n+]([C@@H]2O[C@H](COP(=O)([O-])O)[C@@H](O)[C@H]2O)c1` [NMN, nicotinamide mononucleotide, reference compound] was tested, and the “GPR109A activation (calcium flux)” value [7] was “did not activate GPR109A”, the “NAD+ levels in liver” value [2] was “increased NAD^+ levels in liver” and the “muscle NAD+ content” value [2] was “only NR and NA significantly enhanced muscle NAD^+ content”.
In the case of `O=C1N=C2SCC=C2c2ccccc21` [TIQ-A], the “intracellular NAD+ content upon PARP inhibition” value [8] is reported as “confirmed the increase in NAD^+ content”.
